# A melting point compilation (Tetko et al.; mined from patent text by program, amines drawn as free bases though some values may be those of a salt)
row,Compound,melting point
1,CCCCOc1c(CNC(=O)OC(C)(C)C)n(CC(C)C)c(=O)c2ccc(-c3nc(C)c(C(N)=O)s3)cc12,234 °C
2,Cc1nc(C)c(N2CCCn3c2nc2c(Cl)ccc(C(OC(F)F)C(F)(F)F)c23)c(C)n1 (stereo not given),168 to 170 °C
3,COc1ccc(C(=O)C2CCN(C(C)=O)CC2)c(OC)c1,132 to 134 °C
4,CCc1cc(CC)c(-c2c(OCS(C)(=O)=O)c(C)nn(C)c2=O)c(CC)c1,142 to 143 °C
5,CN1C(=O)N(CC(=O)O)C(=O)C1(C)C,130 to 132 °C
6,CC(C)C[C@H](N)[C@@H](O)CCSCCc1ccccc1,95 to 96 °C
7,CC(C)=CCOC(C)C1CCC2=C3C=CC4C(C)(C)C(OC(=O)CCC(=O)O)CCC4(C)C3CCC21C (stereo not given),96 to 99 °C
8,COc1cc(OC)c(C(=O)Nc2cccc3c2CCN(C)C3)cc1OC,159 to 160 °C
9,OC1(c2cncc(Br)c2)CCCC1,74 °C
10,Cn1c(=O)cc(N)n(-c2ccc(Cl)cc2Cl)c1=O,249 to 251 °C
11,CC(C)(C(=O)O)c1ccc(OC(F)F)cc1,68.5 to 69.5 °C
12,C=CC(=O)NC[C@H](O)[C@@H](O)[C@H](O)[C@H](O)CO,122 to 123 °C
13,CCc1nc(C)[nH]c1I,156 to 159 °C
14,COCC1CN(c2ccc(C3CCC(OCCCCC(N)=O)CC3)cc2)C(=O)O1 (racemic),72 to 74 °C
15,CCOC(Oc1cc(Cl)cc(Cl)c1)C(=O)NC(C)(C)C (stereo not given),69 to 71 °C
16,CCc1cc(Cl)c(S(C)(=O)=O)cc1C(=O)O,180 to 183 °C
17,CC(C)(C)CC(C)(C)C(CCC(=O)OO)CC(=O)OO (stereo not given),60 to 62 °C
18,COc1ccc(CCNC(=O)N(OC(C)=O)C(C)(C)C)cc1OC,123 to 125 °C
19,COC(=O)N1C=C(C=O)CC([C@@H]2CCCN2C)=C1,78 to 80 °C
20,CCCOCCc1ccc(-c2ccc3c(c2)C=C(C(=O)Nc2ccc(CN(C)C4CCOCC4)cc2)CCS3(=O)=O)c(Cl)c1,150 to 152 °C
21,CCCCCCCNC(=O)Nc1c(F)cc(F)cc1CCc1ccc(CC(C)(C)C)cc1,105 to 107 °C
22,CCCCC(Oc1ccc(CCNS(=O)(=O)c2ccc(Cl)cc2)cc1)C(=O)O (stereo not given),138 to 139 °C

row,Compound,melting point
1,C=CCn1c(=O)c(C(=O)OCC)c(N)c2cccnc21,161 to 164 °C
2,Cc1cc(C(=O)N[C@@H]2CCc3cccc(N4CCN(C)CC4)c3C2)ccc1N1CCOCC1,172 to 175 °C
3,CCOC(=O)c1ccc(NC(=O)C(C)C)c(N)c1,147 to 149 °C
4,CC(O)CSc1sc(-c2cc[nH]n2)c2c1C(=O)CC(C)(C)C2 (stereo not given),175 to 178 °C
5,O=C(O)[C@H](Cc1ccc(C(F)(F)F)c(F)c1)[C@@H](O)c1ccc(F)cc1 (racemic),74 to 75 °C
6,O=C(Nc1ccc(Cl)cc1)C1=C(C(=O)Nc2cc(OC3CCCC3)c(Cl)cc2F)CCCC1,221 to 222 °C
7,ClC(Cl)(Cl)SNc1nc(C(Cl)(Cl)Cl)ns1,180 °C
8,CCN(CC)c1ccc(C2(CNC(=O)Nc3c(C(C)C)cccc3C(C)C)CCCC2)cc1,138 to 140 °C
9,CC(=O)NCC(O)(Cn1cncn1)c1ccc(Cl)cc1Cl (stereo not given),178 to 179 °C
10,O=C(O)c1ccc(OCC(O)CO)cc1O (stereo not given),151 to 153 °C
11,CON1CCN2C(=O)C(c3c(C)cc(C)cc3C)C(=O)N2CC1,229 to 230 °C
12,COC(=O)CCc1cc2cc(C(F)(F)F)ccc2[nH]1,106 to 108 °C
13,CCCc1c(OCCCCCCc2ccc3cc(OC)c(OC)cc3c2)ccc(C(=O)O)c1O,102 to 104 °C
14,CC(=O)c1cc2c(cc1F)OC(C)(C)[C@@H](O)[C@@H]2NC(=O)c1ccc(F)cc1 (relative stereo),200 to 203 °C
15,O=c1[nH]c2ccccc2c2c1CNCC2,292 to 295 °C
16,COc1cc2c(cc1Nc1ncc(Cl)c(N[C@@H]3CCCC[C@H]3NS(C)(=O)=O)n1)CCOC(=O)N2C,160 to 162 °C
17,NC(=O)C1CN1C(=O)Oc1ccccc1 (stereo not given),140 to 142 °C
18,COC(=O)Oc1cc(N2C(=O)C3=C(CCCC3)C2=O)c(F)cc1Cl,138 to 146 °C
19,CC(=O)Nc1ccc(C)c2c1C(=O)CCC2,92 to 94 °C
20,N#CC1CN1C(=O)NC(=O)C(Cl)Cl (stereo not given),164 to 166 °C
21,COC(=O)Oc1c(C(=O)c2ccc(Cl)cc2Cl)c(C)nn1C,86 to 88 °C

# Results, then the molecule that gave them:
row,melting point,Compound
1,122 to 125 °C,O=C1N(Cc2ccc(C(F)(F)F)o2)c2ccccc2C12COc1cc(NC3CCNC3)ccc12 (stereo not given)
2,67 °C,COc1ccc2oc(Cc3cccc(F)c3)c(CC#N)c2c1
3,273 to 275 °C,CCOC(=O)c1cc2c(cn1)[nH]c1cccc(Oc3ncccn3)c12
4,223 to 225 °C,Cn1ncc2cc(/C=C/c3ccc(O)cc3)ccc2c1=O
5,50 to 58 °C,CC(C)(C)OC(=O)Nc1ccc(-c2ccccc2F)cc1NC(=O)CC(=O)c1cccc(-n2ccnc2)c1
6,93.6 to 94.9 °C,CCOCCOc1ccc(-c2nc(=O)c3ccccc3s2)cn1
7,77 to 80 °C,Cc1cc(CC(O)CO)c(OCc2ccccc2)c2c1CCC2 (stereo not given)
8,108 to 109 °C,O=C(NCCCOc1ccncc1)c1ccccc1CO
9,151 to 155 °C,O=C(Nc1ccc(N2CCOCC2)cc1)c1ccccc1C(c1ccc(O)cc1)c1ccc(O)cc1
10,111 to 120 °C,CCCN1N=C2C(=Cc3ccccc3)CSCC2C1c1ccccc1 (stereo not given)
11,194 to 196 °C,C[C@H]1c2cc(F)ccc2-c2ccc(F)cc2N1S(=O)(=O)c1ccc(O)cc1
12,135 to 137 °C,O=C(O)c1cc(F)cc(-c2cccc3cc(Cc4ccc(F)c(Cl)c4)sc23)c1
13,107 to 111 °C,CC(=O)Oc1cc(S(=O)(=O)c2ccccc2)ccc1OCc1ccccc1
14,79 °C,CCCCN(CCCC)CCCNc1ccccc1[N+](=O)[O-]
15,177 to 179 °C,O=C1Nc2ccccc2C1=Cc1ccccc1
16,99 to 100 °C,COCC(=O)Nc1nc2ccccc2s1
17,129 to 130 °C,N#Cc1ccc2c(c1)c(C1CCC3(CC1)OCCO3)cn2Cc1ccccc1
18,140 to 141 °C,O=S(=O)(Nc1cccnc1Nc1ccccc1)c1ccccc1Cl
19,105 to 106 °C,COc1ccc2c(=O)cc(-c3ccc(OCC(O)CNC4CC4)cc3)oc2c1 (stereo not given)

row,melting point,Compound
1,139 to 140 °C,Cc1cc(N(C)c2ccn(-c3ccccc3)n2)cc(C)c1O
2,177 to 179 °C,Brc1ccc(-c2ccc(I)cc2)cc1
3,89 to 91 °C,O=C(O)COC(c1cccc(-c2nnc(Nc3ccc(Cl)c(Cl)c3)s2)c1)c1cccc(C(F)(F)F)c1 (stereo not given)
4,106 to 110 °C,Cc1ccccc1C(=O)NC1CCC(=O)N2CCCC(C(=O)NC3CC(=O)OC3OCc3ccccc3)N2C1=O (stereo not given)
5,80 to 82 °C,CCOC(=O)c1cc2cc([Si](C)(C)C)ccc2n1Cc1cccc(F)c1
6,249 °C,O=C1c2ccccc2C(=O)c2sc(-c3ccccc3)nc21
7,134 °C,CC(C)(C)c1ccc(C(=O)CCCCCC2CCCCC2)cc1NC(=O)CC1c2ccccc2Oc2ccccc21
8,42 to 43 °C,CCCOc1ccc([N+](=O)[O-])c(C)c1Cl
9,131 to 132 °C,COc1cc(OC)nc(Sc2cccc(C)c2C(=O)O)n1
10,197 to 198 °C,CC(=O)N[C@@H](CSC(c1ccccc1)(c1ccccc1)c1ccccc1)C(=O)N1CCSC1
11,113 to 114 °C,COc1ccc(C(=O)C=Cc2cccnc2)cc1
12,180 to 181 °C,O=C1C(Cl)=C(Cl)C(=O)N1c1ccc(Oc2ccccc2)cc1
13,192 to 194 °C,COc1ccc(-c2ccc(C(=O)Nc3ccc4nc(CN5CCCCC5)ccc4c3)cc2)cc1
14,165 to 167 °C,COC(=O)[C@@H]1COC(=O)N1c1nc(-c2ccc(Br)cc2)cs1
15,187 to 188 °C,O=[N+]([O-])c1cnn2c(-c3ccccc3)nc3ccccc3c12
16,190 to 192 °C,O=C(C=Cc1ccc(O)cc1)c1c(O)cccc1O
17,221 to 222 °C,O=Cc1c(-c2ccccc2)nn2ccccc12
18,171 to 172 °C,COCCOc1cc2ncnc(NC3=CC(=O)C(Oc4ccc(C)cc4)=CC3=O)c2cc1OC
19,188 to 190 °C,Cc1ccc2oc(=O)c(C(=O)Oc3cccc4cnccc34)cc2c1

row,melting point,Compound
1,157 to 160 °C,O=C1NC(c2ccccc2)Oc2ccccc21 (stereo not given)
2,192 to 194 °C,CCCN1CCCC1CNS(=O)(=O)c1ccc(Nc2ccnc3cc(Cl)ccc23)cc1 (stereo not given)
3,75 to 77 °C,c1cncc(-c2ccsc2)c1
4,203 to 205 °C,COc1cccc(-n2c(-c3cc(-c4ccc(S(C)(=O)=O)cc4)c(N4CCOCC4)s3)nc3ccccc3c2=O)c1
5,108 to 115 °C,COc1ccc2cc([C@H](C)C(=O)OCCN(C)C(=O)c3ccc(CO[N+](=O)[O-])cc3)ccc2c1
6,180 °C,CCc1cccc(C)c1CNc1cc(CO)cn2nc(C)nc12
7,102 °C,CCN(CC)C(=O)c1nc(-c2cccc3ccccc23)no1
8,159 to 160 °C,O=C(c1ccco1)c1cnn2c(-c3cccc(N4CCCCC4=O)c3)ccnc12
9,78 °C,COc1ccc(S(=O)(=O)C(Cc2cccnc2)(CC(C)C)C(=O)NO)cc1 (stereo not given)
10,130 °C,O=C(c1ccc(-c2ccc(Cl)cc2)o1)N1CCN(c2cccc(Br)c2)CC1
11,200 to 204 °C,c1cn(Cc2ccc3c(c2)-c2[nH]nc(-c4ccsc4)c2C3)cn1
12,189 °C,CN(CCSc1ccc(C=C2SC(=O)NC2=O)cc1)c1nc2ccccc2o1
13,260 to 261 °C,O=c1c2c(n(-c3ccccc3)c3ncccc13)SCC2
14,> 230 °C,CSc1nn2c(O)cc(C)nc2c1S(=O)(=O)c1ccc(C)cc1
15,77 to 80 °C,O=C(c1ccc(Br)cc1Cl)N1Cc2cccn2Cc2ccccc21
16,239 to 241 °C,N#Cc1cccc(C2=Nc3ccc(C#Cc4ccc(OC(F)(F)F)cc4)cc3NC(=O)C2)c1
17,188 °C,O=C1C=CC2(C=C1)N=C(N1CCN(Cc3ccc(F)cc3)CC1)C=C2c1ccccc1
18,135 to 137 °C,CCCOc1ccc(S(=O)(=O)N2CCN(CC)CC2)cc1-c1nc2cc3ncn(Cc4ccccc4)c3cc2c(=O)[nH]1
19,75 to 80 °C,O=C(Nc1ccccn1)[C@H](Cc1ccccc1)C[C@@H](Cc1ccccc1)C(=O)N[C@@H](CSCc1ccccc1)C(=O)O
